Key:
[1] = system: EGF-mediated Akt phosphorylation and activation; experiment: EGF-mediated Akt phosphorylation, immunoblotting; assay type: cell-based; conditions: various cancer cell lines
Source text: Cells were lysed with RIPA buffer in the presence of protease inhibitor cocktail (Roche). The following antibodies were used for immunoblotting analysis: anti-Skp2 (Invitrogen), anti-Xpress (Invitrogen), anti-p27 (BD transduction laboratories), anti-p21 (Santa Cruz), anti-β-actin (Sigma), anti-α-tubulin (Sigma), anti-phospho-Akt (Thr308) (Cell Signaling), anti-phospho-Akt (Ser473) (Cell Signaling), and anti-HA (Convance). For immunohistochemistry, tissues were fixed in 10% formalin and embedded in paraffin in accordance with standard procedures. Sections were stained with anti-Skp2 (Invitrogen), anti-p27 (Epitomics), anti-phosphoAkt (SerS473) (Cell signaling), anti-Glut1 (Abcam), and anti-Ki67 (Abcam). TUNEL staining was performed by using in situ cell death detection kit-POD (Roche).

H3255 (lung) = experiment: Cell survival assay, H3255; assay type: cell-based, human
Experimental: (§1) For Skp2 inhibitor administration, 5-10×10^3 of cells with were seeded in 12 wells in triplicate, 24 h later, treated with compound #25 (refreshed every two days). Four days later, cells were harvested, stained with trypan blue, and viable cells were counted directly under the microscope using hemocytometer. For doxorubicin treatment, 8×10^3 of PC3 cells with were seeded in 12 wells in triplicate, 24 h later, treated with various dose of compound #25 in the presence or absence of 10 nM doxorubicin or 25 ng/ml cyclophosphamide for four and three days, respectively (refreshed every two days). After treatment, cells were harvested, stained with trypan blue, and viable cells were counted directly under the microscope using hemocytometer. Cellular senescence was determined by assessing SA-b-gal activity using senescence detection kit according to manufacturers' standard procedures (Calbiochem).

A549 xenograft tumors = experiment: A549 tumor xenograft in nude mice; assay type: in vivo; conditions: IP injection
Experimental: Nude mice bearing PC3 or A549 xenograft tumors (around 100 mm^3) were administrated with vehicle or 80 mg/kg compound #25 on a daily basis. Tumor size was measured weekly with a caliper, and tumor volume was determined with the standard formula: L×W2×0.52, where L is the longest diameter and W the shortest diameter.

prostate CSCs = experiment: ALDH+ cancer stem cell population by FACS; assay type: cell-based
Experimental: FIGS. 6A-G. Skp2 inactivation diminishes cancer stem cell properties and heightens cancer cell sensitivity to chemotherapy. (FIG. 6A) Populations of ALDH^+ cells were determined by FACS analysis in PC3 cells treated with vehicle or compound #25. (FIG. 6B) Populations of ALDH^+ cells were determined by FACS analysis in PC3 cells with control or Skp2 knockdown. (FIG. 6C) Populations of ALDH^+ cells were determined by FACS analysis in PC3 cells with control or Skp2 knockdown treated with vehicle or compound #25. (FIG. 6D) Populations of ALDH^+ cells were determined by FACS analysis in PC3 cells with DMSO or LY294002. (FIG. 6E) Populations of ALDH^+ cells were determined by FACS analysis in LNCaP cells treated with DMSO, LY294002 or compound #25. (FIGS. 6F-G) Prostate sphere-formation assay in PC3 (FIG. 6F) and LNCaP (FIG. 6G) cells treated with DMSO, LY294002 or compound #25. Results are presented as mean values±S.D. ** indicates p<0.01.

[2] = biological target: T1, Skp1/Skp2 binding interaction (Homo sapiens, UniProt Q13309); experiment: In vitro Skp2-Skp1 binding assay (GST pull-down)
T1 construct: made in house; host or cells: GST-Skp1: E. coli BL21; Skp2: in vitro translation
Experimental: For in vitro GST-Skp1 and Skp2 interaction, GST-Skp1 proteins purified from the bacterial lysates of BL21 competent cells transformed with pGEX-4X1-Skp1 using the Glutathione-Agarose beads according to the manufacturer's standard procedures. The GST-Skp1 proteins bound to glutathione Sepharose beads (Amersham Biosciences) were then incubated with the in vitro translated [35^S]-Skp2 for 2 hours at 4° C. in the interaction buffer with or without compound #25 (20 mM HEPES, PH 7.9, 150 mM KCl. 5 mM EDTA, 0.5 mM DTT, 0.1% (v/v) Nonidet p-40, 0.1% (w/v) BSA, 1 mM PMSF, and 10% Glycerol), washed by the NETN buffer (20 mM Tris, pH 8.0, 100 mM NaCl, 6 mM MgCl2, 1 mM EDTA, 0.5% Nonidet P-40, 1 mM DTT, 8% glycerol, 1 mM PMSF) 4 times, and subjected to 8% SDS-PAGE, followed by autoradiography.
Below are the original lead compound and 11 similar compounds that were tested for their ability to block the Skp1/Skp2 binding interaction in an in vitro assay. The quantification was made on western blot/images, and the percentages represent the amount of intact Skp1/Skp2 remaining after treatment. In vitro binding assays were performed. For in vitro GST-Skp1 and Skp2 interaction, GST-Skp1 proteins purified from the bacterial lysates of BL21 competent cells transformed with pGEX-4X1-Skp1 using the Glutathione-Agarose beads were performed according to the manufacturer's standard procedures. The GST-Skp1 proteins bound to glutathione Sepharose beads (Amersham Biosciences) were then incubated with the in vitro translated [35^S]-Skp2 for 2 hours at 4° C. in the interaction buffer with or without lead compound and 11 similar compounds (20 mM HEPES, PH 7.9, 150 mM KCl. 5 mM EDTA, 0.5 mM DTT, 0.1% (v/v) Nonidet p-40, 0.1% (w/v) BSA, 1 mM PMSF, and 10% Glycerol), washed by the NETN buffer (20 mM Tris, pH 8.0, 100 mM NaCl, 6 mM MgCl2, 1 mM EDTA, 0.5% Nonidet P-40, 1 mM DTT, 8% glycerol, 1 mM PMSF) 4 times, and subjected to 8% SDS-PAGE, followed by autoradiography. The data presented in Table 1 below was obtained using the Skp1/Skp2 binding affinity assay. The quantification percentage results listed below are based on the western blot results.

LNCaP cells = experiment: Cell survival assay, LNCaP; assay type: cell-based, human
Experimental: as §1

T1 sequence (Q13309 whole entry): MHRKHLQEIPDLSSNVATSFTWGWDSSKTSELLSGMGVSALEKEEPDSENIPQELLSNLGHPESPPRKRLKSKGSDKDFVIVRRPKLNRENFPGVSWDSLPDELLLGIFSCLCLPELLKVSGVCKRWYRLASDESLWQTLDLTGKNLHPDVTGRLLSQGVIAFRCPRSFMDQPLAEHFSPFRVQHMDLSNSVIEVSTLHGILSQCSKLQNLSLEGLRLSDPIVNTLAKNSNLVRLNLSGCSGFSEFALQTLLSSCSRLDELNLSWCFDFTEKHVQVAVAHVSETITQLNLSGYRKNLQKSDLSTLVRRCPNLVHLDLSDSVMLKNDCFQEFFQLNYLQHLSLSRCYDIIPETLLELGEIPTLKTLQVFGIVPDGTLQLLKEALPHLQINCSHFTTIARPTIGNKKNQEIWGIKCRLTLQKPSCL

SMILES: CCc1cc2c(=O)c(-c3nc4ccccc4s3)coc2c(CN2CCCCC2)c1O [compound #25, 3-(1,3-benzothiazol-2-yl)-6-ethyl-7-hydroxy-8-(1-piperidinylmethyl)-4H-chromen-4-one]
- EGF-mediated Akt phosphorylation and activation [1]: profoundly inhibited
- cell viability (H3255 (lung)): potent suppressive effect on viability
- lung tumor growth in vivo (A549 xenograft tumors): potent effect
- population of prostate CSCs (prostate CSCs): reduce the population of prostate CSCs in a dose dependent manner
- population of prostate CSCs upon Skp2 silencing (prostate CSCs; Skp2 silencing): failed to do so
- disruption of Skp2-Skp1 interaction ([2]; 5 μM): completely disrupt Skp2-Skp1 interaction
- interaction between WT Skp2 and Skp1 ([2]; WT Skp2, FIG. 2D): prevented the interaction between WT Skp2 and Skp1
- Normalized w/ vehicle treatment ([2]; amount of intact Skp1/Skp2 remaining after treatment, quantified on western blot/images): 10%
- cell viability (LNCaP cells): potent effects on cell viability

— patent US9624211B2, “Anti-cancer compounds” (Board of Regents, The University of Texas System, priority 2013, dated 2017)
